Results from US8354539B2, “Indole derivatives as IKK2 inhibitors” (Glaxo Group Limited, priority 2009, dated 2013).

How the values were obtained:
[1] = tested on: human peripheral blood mononuclear cells (PBMC); experiment: Human peripheral blood mononuclear cell assay (LPS stimulated TNFa production); assay type: cell-based; settings: read-out: pIC50 potency, inhibition of TNF production (converted)
Protocol: The cellular potency of compounds was assessed in human peripheral blood mononuclear cells (PBMC) by measuring their impact on lipopolysaccharide (LPS) stimulated TNFa production. PBMCs were prepared from heparinised human blood from normal volunteers by centrifugation on hystopaque in Accuspin tubes at 800 g for 20 minutes. The cells were collected from the interface, washed by centrifugation (1300 g, 10 minutes) and resuspended in assay buffer (RPMI1640 containing 10% foetal calf serum, 1% L-glutamine and 1% penicillin/streptomycin) at 1×10^6 cells/ml. […] The supernatant was removed and the concentrations of TNF determined by electrochemiluminescence assay using the MSD technology.
(§1) 20 μl supernatant from PBMC plates or 40 μl from whole blood plates was transferred using the Biomek FX to a 96 well High-Bind MSD assay plate precoated with anti-hTNF alpha capture antibody and containing 25 μl of MSD human serum cytokine assay diluent. […] The plates were shaken at room temperature for a further 1 hour before washing again and adding 150 μl of MSD Read Buffer T (2×). Plates were then read on the MSD Sector 6000 plate reader. For the PBMC assay, supernatant addition to the MSD plates was followed immediately by 20 μl of MSD detection antibody, the plates were then sealed and shaken for 2 hours before addition of 90 μl of MSD Read Buffer P (2.5×). Plates were read on the MSD Sector 6000. […]

human whole blood = experiment: Human whole blood assay (LPS stimulated TNFα); assay type: cell-based; settings: read-out: pIC50 potency, inhibition of TNF production (converted)
Protocol: Heparinised blood drawn from normal volunteers was dispensed (100 μl) into microtitre plate wells containing 1.0 μl of an appropriately diluted compound solution in DMSO. After 1 hr incubation at 37° C., 5% CO2, 25 μl LPS solution (S. typhosa) in RPMI 1640 (containing 1% L-glutamine and 1% Penicillin/streptomycin) was added (50 ng/ml final). The samples were incubated at 37° C., 5% CO2 for 20 hours, 50 μls physiological saline (0.138% NaCl) was added and diluted plasma was collected using a Biomek FX liquid handling robot after centrifugation at 1300 g for 10 min. Plasma TNFα content was determined by electrochemiluminescence assay using the Mesoscale (MSD) technology.
as §1

LPS induced neutrophilia = experiment: Inhaled LPS induced neutrophilia in the male CD rat; assay type: in vivo; settings: dose of 300 ug/kg i.t.
Protocol: Male CD rats (150-250 g) were anaesthetised with isoflurane (5%, 2 L/min O2, 1 L/min […]) and positioned on their back on a dosing table at a 35 degree angle, with a metal rod placed under their incisors to keep them in place. A light was angled against the outside of the throat to highlight the trachea. The mouth was opened to visualise the upper opening of the airway and a portex cannula was introduced into the trachea via a blunt dosing needle. 200 ul of compound formulation was then injected into the airways. After dosing, animals were placed in a supine position during recovery from anaesthesia.
Approximately thirty minutes following dosing of compound or vehicle, the rats were placed into a cloud chamber and exposed to an aerosol of lipopolysaccharide, generated from a 150 ug/ml solution for 15 min.
Four hours following LPS challenge the animals were culled with an overdose of sodium pentobarbitone given intraperitoneally. The trachea was exposed and a small incision made, into which a tube was inserted towards the lungs. The lungs were then washed with 3 times with 5 mls heparinised (10 U/ml) PBS.
The bronchoalveolar lavage fluid (BALF) samples were centrifuged at 1300 rpm for 7 minutes. […] The total cells were also counted from the resuspension using a Sysmex counter. From these two counts, the total numbers of neutrophils in the BALF were determined.

IC50 (human whole blood): < 0.316 µM
SMILES: COCCS(=O)(=O)N1CCC(c2c[nH]c3c(C(N)=O)cc(-c4ccc5c(c4)CN(C(C)C)C5)cc23)CC1 [Compound of formula (I), 5-[2-(1-methylethyl)-2,3-dihydro-1H-isoindol-5-yl]-3-(1-{[2-(methyloxy)ethyl]sulfonyl}-4-piperidinyl)-1H-indole-7-carboxamide]
IC50 [1]: < 0.0316 µM
inhibition of LPS induced neutrophilia (LPS induced neutrophilia): greater than 75%
